Laboratory results taken from PubChem BioAssay (NCI).
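Five compound concentrations were applied to cells in 96-well plates for 48 hours; endpoints were derived by simple linear interpolation of the resulting dose-response curve. Abbreviation: GI50, concentration required for 50% inhibition of growth. The concentration for full growth arrest is given as TGI.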

Tests used:
Test in all cases: NCI-60 cell line screen, 48 h
HT29 colon = system: HT29 colon
IGROV1 ovarian = system: IGROV1 ovarian
K-562 leukemia = system: K-562 leukemia
M14 melanoma = system: M14 melanoma
MALME-3M melanoma = system: MALME-3M melanoma
MDA-MB-231 breast = system: MDA-MB-231 breast
SN12C renal = system: SN12C renal
SNB-19 CNS = system: SNB-19 CNS
SW-620 colon = system: SW-620 colon
U251 CNS = system: U251 CNS

SMILES | GI50 (HT29 colon) | TGI (HT29 colon) | GI50 (IGROV1 ovarian) | TGI (IGROV1 ovarian) | GI50 (K-562 leukemia) | TGI (K-562 leukemia) | GI50 (M14 melanoma) | TGI (M14 melanoma) | GI50 (MALME-3M melanoma) | TGI (MALME-3M melanoma) | GI50 (MDA-MB-231 breast) | TGI (MDA-MB-231 breast) | GI50 (SN12C renal) | TGI (SN12C renal) | GI50 (SNB-19 CNS) | TGI (SNB-19 CNS) | GI50 (SW-620 colon) | TGI (SW-620 colon) | GI50 (U251 CNS) | TGI (U251 CNS)
COc1ccc(S(=O)(=O)N(C(C)=O)c2ccccc2/C=C/c2cc[n+]([O-])cc2)cc1 | 0.422 µM | > 10 µM | 1.07 µM | > 10 µM | 0.321 µM | > 3.17 µM | 0.388 µM | 8.08 µM | 3.77 µM | > 10 µM | 1.26 µM | > 10 µM | 1.61 µM | > 10 µM | 0.418 µM | > 10 µM | 0.559 µM | > 10 µM | 0.504 µM | > 10 µM
CNC(=O)c1cncc(/C=C/c2ccccc2Cl)c1 | > 25 µM | > 25 µM | > 25 µM | > 25 µM | > 25 µM | > 25 µM | > 25 µM | > 25 µM | > 25 µM | > 25 µM | > 25 µM | > 25 µM | > 25 µM | > 25 µM | > 25 µM | > 25 µM | > 25 µM | > 25 µM | > 25 µM | > 25 µM
COc1cc(NCCCCCN=C(N)NC(N)=NC(C)C)c2ncccc2c1 | 4.44 µM | > 42.3 µM | 0.228 µM | 0.809 µM | 0.607 µM | 19.3 µM | 6.12 µM | 20.1 µM | 0.43 µM | 1.91 µM | 0.531 µM | 4.47 µM | 2.32 µM | 14.8 µM | 2.56 µM | 12.8 µM | 0.927 µM | 14 µM | 1.69 µM | 11.8 µM
COc1ccc(-c2cc(=O)c3c(O)c(OC)c(OC)c(OC)c3o2)cc1 |  | > 100 µM |  | > 100 µM |  | > 100 µM |  | > 100 µM |  | > 100 µM |  | > 72 µM |  | > 100 µM |  | > 100 µM |  | > 100 µM |  | > 100 µM
COc1cc2nccc(Oc3ccc(NC(=O)c4cn(C(C)C)c(=O)n(-c5ccc(F)cc5)c4=O)cc3F)c2cc1OC | 6.25 µM | > 100 µM |  | > 100 µM | 0.0442 µM | > 100 µM | 63.3 µM | > 100 µM | 2.39 µM | 11.8 µM | 2.61 µM | 39.5 µM | 2.81 µM | > 100 µM | > 100 µM | > 100 µM | 5.77 µM | > 100 µM | > 100 µM | > 100 µM
CC(C)c1ccc(NC(=O)Cc2ccc(Nc3ncnc4cc(-c5cnn(CCN(C)C)c5)ccc34)cc2)cc1 | 1.4 µM | 3.49 µM | 1.48 µM | 3.64 µM | 2.12 µM | 5.94 µM | 1.28 µM | 2.97 µM | > 10 µM | > 10 µM | 1.44 µM | 3.14 µM | 1.34 µM | 3.05 µM | 1.27 µM | 3.39 µM | 1.18 µM | 2.76 µM | 1.7 µM | 4.5 µM
O=C[C@@H](CO)O[C@H](C=O)n1cnc2c(=O)[nH]cnc21 |  | 1910 µM |  | 1360 µM |  | 496 µM |  | 1860 µM |  | 1300 µM |  | 1010 µM |  | 1380 µM |  | 2150 µM |  | 868 µM |  | 2500 µM
COc1cc(C(=O)c2cocc2C(=O)c2ccc3c(c2)OCO3)cc(OC)c1OC |  | 5.98 µM |  | 48.5 µM |  | > 94.9 µM |  | 33.5 µM |  | 29.1 µM |  | 48.5 µM |  | 56.1 µM |  | 35.3 µM |  | > 57.8 µM |  | 8.35 µM
CCn1c2ccccc2c2cc(C(=O)c3ccc(C)c4ccccc34)ccc21 | 0.263 µM | 0.729 µM | 0.635 µM | > 100 µM | 0.338 µM | > 100 µM | 0.276 µM | 1.42 µM | 0.5 µM | > 100 µM | 0.824 µM | > 100 µM | 2.44 µM | > 100 µM | 0.438 µM | > 100 µM | 0.352 µM | > 100 µM | 0.278 µM | 1.52 µM
CC1(C)CCC[C@]2(C)c3ccccc3C(=O)CC12 (some centres undefined) | 43 µM | > 100 µM | 45.3 µM | > 100 µM | 41.4 µM | > 100 µM | 38.6 µM | > 100 µM | 29 µM | > 100 µM | 30.8 µM | > 100 µM | 44.9 µM | > 100 µM | 49.6 µM | > 100 µM | 31 µM | > 100 µM | 42.3 µM | > 100 µM
C[C@]12C[C@H](O)[C@H]3[C@@H](CCC4=CC(=O)CC[C@@]43C)[C@@H]1CC[C@@H]2c1csc(-c2ccccc2)n1 |  | > 100 µM |  | > 100 µM |  | > 100 µM |  | > 100 µM |  | 97.3 µM |  | > 77.8 µM |  | > 100 µM |  | > 100 µM |  | > 100 µM |  | > 71.4 µM
